Reference: PubChem BioAssay (NCI)
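96-well plates; 48 h exposure; 5 concentrations. Endpoints by linear interpolation between flanking doses. Not reached: highest tested concentration assigned. GI50: concentration for 50% inhibition of growth. TGI denotes the concentration required for complete inhibition of growth.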

Assays:
Assay in all cases: inhibition of tumour cell growth, NCI panel, 48 h
SK-MEL-5 melanoma = system: SK-MEL-5 melanoma
SK-OV-3 ovarian = system: SK-OV-3 ovarian
SK-MEL-28 melanoma = system: SK-MEL-28 melanoma
HS 578T breast = system: HS 578T breast
K-562 leukemia = system: K-562 leukemia
HOP-62 NSCLC = system: HOP-62 NSCLC
NCI-H522 lung = system: NCI-H522 lung
RPMI-8226 leukemia = system: RPMI-8226 leukemia
HCT-15 colon = system: HCT-15 colon
786-0 renal = system: 786-0 renal
MALME-3M melanoma = system: MALME-3M melanoma
A549 NSCLC = system: A549 NSCLC
OVCAR-8 ovarian = system: OVCAR-8 ovarian
HOP-92 NSCLC = system: HOP-92 NSCLC
NCI-H226 lung = system: NCI-H226 lung
KM12 colon = system: KM12 colon
MOLT-4 leukemia = system: MOLT-4 leukemia
RXF 393 renal = system: RXF 393 renal
LOX IMVI melanoma = system: LOX IMVI melanoma
SR leukemia = system: SR leukemia
U251 CNS = system: U251 CNS
SNB-19 CNS = system: SNB-19 CNS
BT-549 breast = system: BT-549 breast
TK-10 renal = system: TK-10 renal
OVCAR-5 ovarian = system: OVCAR-5 ovarian
UACC-62 melanoma = system: UACC-62 melanoma
DU-145 prostate = system: DU-145 prostate
CAKI-1 renal = system: CAKI-1 renal
SN12C renal = system: SN12C renal
HT29 colon = system: HT29 colon
SF-268 CNS = system: SF-268 CNS
UACC-257 melanoma = system: UACC-257 melanoma
ACHN renal = system: ACHN renal
A498 renal = system: A498 renal
IGROV1 ovarian = system: IGROV1 ovarian
NCI-H460 lung = system: NCI-H460 lung
HCT-116 colon = system: HCT-116 colon
MCF7 breast = system: MCF7 breast
UO-31 renal = system: UO-31 renal
MDA-MB-231 breast = system: MDA-MB-231 breast
OVCAR-4 ovarian = system: OVCAR-4 ovarian
CCRF-CEM leukemia = system: CCRF-CEM leukemia
SF-539 CNS = system: SF-539 CNS
OVCAR-3 ovarian = system: OVCAR-3 ovarian
COLO 205 colon = system: COLO 205 colon
PC-3 prostate = system: PC-3 prostate
SF-295 CNS = system: SF-295 CNS
NCI-H23 lung = system: NCI-H23 lung
HCC-2998 colon = system: HCC-2998 colon
NCI/ADR-RES ovarian = system: NCI/ADR-RES ovarian
EKVX NSCLC = system: EKVX NSCLC
HL-60(TB) leukemia = system: HL-60(TB) leukemia
SNB-75 CNS = system: SNB-75 CNS
M14 melanoma = system: M14 melanoma
SW-620 colon = system: SW-620 colon
SK-MEL-2 melanoma = system: SK-MEL-2 melanoma

N#CC1=C(N)Oc2c(ccc3ccccc23)C1c1ccccc1Cl (stereo not given)
GI50 (SK-MEL-5 melanoma): 0.487 µM
TGI (SK-MEL-5 melanoma): 4.87 µM
GI50 (SK-OV-3 ovarian): 0.628 µM
TGI (SK-OV-3 ovarian): 43.3 µM
GI50 (SK-MEL-28 melanoma): 1.92 µM
TGI (SK-MEL-28 melanoma): 22.9 µM
GI50 (HS 578T breast): 0.226 µM
TGI (HS 578T breast): 2.94 µM
GI50 (K-562 leukemia): 0.0796 µM
TGI (K-562 leukemia): > 43.5 µM
GI50 (HOP-62 NSCLC): 0.374 µM
TGI (HOP-62 NSCLC): 17.3 µM
GI50 (NCI-H522 lung): 0.0848 µM
TGI (NCI-H522 lung): 3.22 µM
GI50 (RPMI-8226 leukemia): 0.348 µM
TGI (RPMI-8226 leukemia): 8.86 µM
GI50 (HCT-15 colon): 0.183 µM
TGI (HCT-15 colon): 11.4 µM
GI50 (786-0 renal): 0.754 µM
TGI (786-0 renal): 16.4 µM
GI50 (MALME-3M melanoma): 0.617 µM
TGI (MALME-3M melanoma): 22.9 µM
GI50 (A549 NSCLC): 0.476 µM
TGI (A549 NSCLC): 26.7 µM
GI50 (OVCAR-8 ovarian): 0.542 µM
TGI (OVCAR-8 ovarian): > 57.7 µM
GI50 (HOP-92 NSCLC): 2.24 µM
TGI (HOP-92 NSCLC): 15.1 µM
GI50 (NCI-H226 lung): 1.52 µM
TGI (NCI-H226 lung): 13.2 µM
GI50 (KM12 colon): 0.227 µM
TGI (KM12 colon): 7.9 µM
GI50 (MOLT-4 leukemia): 0.447 µM
TGI (MOLT-4 leukemia): 17.8 µM
GI50 (RXF 393 renal): 0.238 µM
TGI (RXF 393 renal): 18.6 µM
GI50 (LOX IMVI melanoma): 0.479 µM
TGI (LOX IMVI melanoma): 12.1 µM
GI50 (SR leukemia): 0.107 µM
TGI (SR leukemia): 22.1 µM
GI50 (U251 CNS): 0.407 µM
TGI (U251 CNS): 17.1 µM
GI50 (SNB-19 CNS): 0.59 µM
TGI (SNB-19 CNS): 23.1 µM
GI50 (BT-549 breast): 1.2 µM
TGI (BT-549 breast): 7.74 µM
GI50 (TK-10 renal): 4.95 µM
TGI (TK-10 renal): 44.1 µM
GI50 (OVCAR-5 ovarian): 0.545 µM
TGI (OVCAR-5 ovarian): 18.8 µM
GI50 (UACC-62 melanoma): 0.677 µM
TGI (UACC-62 melanoma): 17.7 µM
GI50 (DU-145 prostate): 0.432 µM
TGI (DU-145 prostate): 12.3 µM
GI50 (CAKI-1 renal): 0.167 µM
TGI (CAKI-1 renal): 20.9 µM
GI50 (SN12C renal): 0.722 µM
TGI (SN12C renal): 13.9 µM
GI50 (HT29 colon): 0.362 µM
TGI (HT29 colon): 12.6 µM
GI50 (SF-268 CNS): 1.11 µM
TGI (SF-268 CNS): 15.5 µM
GI50 (UACC-257 melanoma): 11 µM
TGI (UACC-257 melanoma): 38.2 µM
GI50 (ACHN renal): 0.718 µM
TGI (ACHN renal): 19.6 µM
GI50 (A498 renal): 0.0845 µM
TGI (A498 renal): 0.496 µM
GI50 (IGROV1 ovarian): 0.455 µM
TGI (IGROV1 ovarian): 15.4 µM
GI50 (NCI-H460 lung): 0.335 µM
TGI (NCI-H460 lung): 1.34 µM
GI50 (HCT-116 colon): 0.275 µM
TGI (HCT-116 colon): 5.41 µM
GI50 (MCF7 breast): 0.383 µM
TGI (MCF7 breast): 15.2 µM
GI50 (UO-31 renal): 0.282 µM
TGI (UO-31 renal): 24.8 µM
GI50 (MDA-MB-231 breast): 0.571 µM
TGI (MDA-MB-231 breast): 14.6 µM
GI50 (OVCAR-4 ovarian): 1.13 µM
TGI (OVCAR-4 ovarian): 20.4 µM
GI50 (CCRF-CEM leukemia): 0.269 µM
TGI (CCRF-CEM leukemia): 17.2 µM
GI50 (SF-539 CNS): 0.233 µM
TGI (SF-539 CNS): 0.792 µM
GI50 (OVCAR-3 ovarian): 0.197 µM
TGI (OVCAR-3 ovarian): 0.493 µM
GI50 (COLO 205 colon): 0.362 µM
TGI (COLO 205 colon): 12.9 µM
GI50 (PC-3 prostate): 0.317 µM
TGI (PC-3 prostate): 16.2 µM
GI50 (SF-295 CNS): 0.233 µM
TGI (SF-295 CNS): 11.3 µM
GI50 (NCI-H23 lung): 0.474 µM
TGI (NCI-H23 lung): 17.3 µM
GI50 (HCC-2998 colon): 0.429 µM
TGI (HCC-2998 colon): 11.6 µM
GI50 (NCI/ADR-RES ovarian): 0.133 µM
TGI (NCI/ADR-RES ovarian): 5.62 µM
GI50 (EKVX NSCLC): 0.652 µM
TGI (EKVX NSCLC): 22.2 µM
GI50 (HL-60(TB) leukemia): 0.27 µM
TGI (HL-60(TB) leukemia): 0.776 µM
GI50 (SNB-75 CNS): 0.163 µM
TGI (SNB-75 CNS): 2.95 µM
GI50 (M14 melanoma): 0.188 µM
TGI (M14 melanoma): 3.39 µM
GI50 (SW-620 colon): 0.172 µM
TGI (SW-620 colon): 14.7 µM
GI50 (SK-MEL-2 melanoma): 0.558 µM
TGI (SK-MEL-2 melanoma): 18 µM

CC(C)OC(=S)[S-].[Au+].c1ccc([PH+](c2ccccc2)c2ccccc2)cc1
GI50 (NCI-H522 lung): 0.176 µM
TGI (NCI-H522 lung): 0.409 µM
GI50 (RPMI-8226 leukemia): 0.747 µM
TGI (RPMI-8226 leukemia): 4.01 µM
GI50 (HOP-92 NSCLC): 1.07 µM
TGI (HOP-92 NSCLC): 2.25 µM
GI50 (RXF 393 renal): 0.387 µM
TGI (RXF 393 renal): 1.48 µM
GI50 (LOX IMVI melanoma): 0.478 µM
TGI (LOX IMVI melanoma): 2.07 µM
GI50 (U251 CNS): 0.419 µM
TGI (U251 CNS): 1.56 µM
GI50 (MCF7 breast): 0.467 µM
TGI (MCF7 breast): 2.66 µM
GI50 (SF-539 CNS): 1.24 µM
TGI (SF-539 CNS): 2.49 µM
GI50 (OVCAR-3 ovarian): 0.316 µM
TGI (OVCAR-3 ovarian): 1.05 µM
GI50 (HL-60(TB) leukemia): 0.264 µM
TGI (HL-60(TB) leukemia): 1.36 µM
GI50 (M14 melanoma): 0.986 µM
TGI (M14 melanoma): 2.32 µM

N=C(N)c1ccc(-c2ccc(-c3ccc(Cl)cc3)s2)s1
GI50 (SK-MEL-5 melanoma): 3.16 µM
TGI (SK-MEL-5 melanoma): 8.66 µM
GI50 (SK-OV-3 ovarian): 1.7 µM
TGI (SK-OV-3 ovarian): 3.15 µM
GI50 (SR leukemia): 0.322 µM
TGI (SR leukemia): > 100 µM
GI50 (DU-145 prostate): 1.62 µM
TGI (DU-145 prostate): 2.98 µM
GI50 (UACC-257 melanoma): 2.78 µM
TGI (UACC-257 melanoma): 4.9 µM
GI50 (A498 renal): 13 µM
TGI (A498 renal): 45.3 µM

Cc1cc2c(C#N)n3c(c2cc1C)C(=O)C(c1ccccc1)Oc1ccccc1-3 (stereo not given)
GI50 (SK-OV-3 ovarian): 5.55 µM
TGI (SK-OV-3 ovarian): > 100 µM
GI50 (HS 578T breast): 4.29 µM
TGI (HS 578T breast): > 100 µM
GI50 (HOP-62 NSCLC): 3.71 µM
TGI (HOP-62 NSCLC): > 100 µM
GI50 (786-0 renal): 3.91 µM
TGI (786-0 renal): > 100 µM
GI50 (HOP-92 NSCLC): 1.62 µM
TGI (HOP-92 NSCLC): 5.77 µM
GI50 (RXF 393 renal): 2.71 µM
TGI (RXF 393 renal): 39.6 µM
GI50 (SNB-19 CNS): 2.97 µM
TGI (SNB-19 CNS): > 100 µM
GI50 (TK-10 renal): 3.33 µM
TGI (TK-10 renal): > 100 µM
GI50 (SF-268 CNS): 3.73 µM
TGI (SF-268 CNS): > 100 µM
GI50 (SF-295 CNS): 3.83 µM
TGI (SF-295 CNS): > 100 µM
GI50 (HCC-2998 colon): > 100 µM
TGI (HCC-2998 colon): > 100 µM
GI50 (SNB-75 CNS): 2.25 µM
TGI (SNB-75 CNS): 9.58 µM
